ChEMBL document CHEMBL1158240, “Phytogrowth-inhibitory and antifungal constituents of Helianthella quinquenervis” (J Nat Prod, 1996)
Converted amounts (≈) assume the structure as drawn. The source made the active and inactive calls. The rule behind the calls is not given here.

What was measured:
[1] = system: Aspergillus niger; assay: Antimicrobial activity against Aspergillus niger ATCC 16888 by agar dilution method; assay type: functional, organism-based
[2] = Toxicity in brine shrimp; assay type: organism-based; details: artemia, in vivo
[3] = system: HT-29; assay: Cytotoxicity against human HT29 cells after 7 days by MTT assay; assay type: functional; details: HT-29, 168 h, read-out: ED50 (the source's name)
[4] = system: MCF7; assay: Cytotoxicity against human MCF7 cells after 7 days by MTT assay; assay type: functional; details: MCF7, 168 h, read-out: ED50 (the source's name)
[5] = system: Candida albicans; assay: Antimicrobial activity against Candida albicans ATCC 10231 by agar dilution method; assay type: functional, organism-based
[6] = system: A549; assay: Cytotoxicity against human A549 cells after 7 days by MTT assay; assay type: functional; details: A549, 168 h, read-out: ED50 (the source's name)
[7] = system: Amaranthus hypochondriacus; assay: Phytogrowth-inhibitory activity against Amaranthus hypochondriacus assessed as inhibition of seedling growth petri dish bioassay; assay type: functional, organism-based
[8] = system: Echinochloa crus-galli; assay: Phytogrowth-inhibitory activity against Echinochloa crus-galli assessed as inhibition of seedling germination by petri dish bioassay; assay type: functional, organism-based
[9] = system: Trichophyton mentagrophytes; assay: Antimicrobial activity against Trichophyton mentagrophytes ATCC 9129 by agar dilution method; assay type: functional

Compound	Activity [1]	LC50 [2]	EC50 [3]	EC50 [4]	Activity [5]	EC50 [6]	IC50 [7]	IC50 [8]	MIC [9]
COc1cc2c(cc1C(C)=O)C=CC(C)(C)O2 [ENCECALIN]	inactive	31 µg/mL (≈ 133 µM)	18 µg/mL (≈ 77.5 µM)	29 µg/mL (≈ 125 µM)	inactive	25 µg/mL (≈ 108 µM)	7 µg/mL (≈ 30.1 µM)	6 µg/mL (≈ 25.8 µM)	–
COC(C)(C)/C=C/c1cc(C(C)=O)ccc1O[C@@H]1O[C@H](CO)[C@@H](O)[C@H](O)[C@H]1O	inactive	> 1000 µg/mL	61 µg/mL (≈ 154 µM)	44 µg/mL (≈ 111 µM)	inactive	6 µg/mL (≈ 15.1 µM)	148 µg/mL (≈ 373 µM)	231 µg/mL (≈ 583 µM)	–
C=C(C)[C@H]1Cc2cc(C(C)=O)c(OC)cc2O1	inactive	8 µg/mL (≈ 34.4 µM)	16 µg/mL (≈ 68.9 µM)	33 µg/mL (≈ 142 µM)	inactive	1 µg/mL (≈ 4.31 µM)	11 µg/mL (≈ 47.4 µM)	68 µg/mL (≈ 293 µM)	–
COc1cccc2c1C(=O)c1c(O)c3c(c(O)c1C2=O)C[C@@](O)(C(=O)CO)C[C@@H]3O[C@H]1C[C@H](N)[C@H](O)[C@H](C)O1 [DOXORUBICIN]	–	–	0.04 µg/mL (≈ 0.0736 µM)	0.02 µg/mL (≈ 0.0368 µM)	–	0.002 µg/mL (≈ 0.00368 µM)	–	–	–
C=C(C)c1cc2cc(C(C)=O)c(O)cc2o1 [EUPARIN]	inactive	44 µg/mL (≈ 203 µM)	6 µg/mL (≈ 27.7 µM)	6 µg/mL (≈ 27.7 µM)	inactive	22 µg/mL (≈ 102 µM)	111 µg/mL (≈ 513 µM)	252 µg/mL (≈ 1170 µM)	29 µg/mL (≈ 134 µM)
C=C(C)[C@@H]1Oc2cc(O)c(C(C)=O)cc2[C@H]1OC	inactive	68 µg/mL (≈ 274 µM)	16 µg/mL (≈ 64.4 µM)	34 µg/mL (≈ 137 µM)	inactive	31 µg/mL (≈ 125 µM)	61 µg/mL (≈ 246 µM)	323 µg/mL (≈ 1300 µM)	–
CC(=O)c1cc2c(cc1O)OC(C)(C)C=C2 [DEMETHYLENCECALIN]	inactive	31 µg/mL (≈ 142 µM)	2 µg/mL (≈ 9.16 µM)	2 µg/mL (≈ 9.16 µM)	inactive	10 µg/mL (≈ 45.8 µM)	27 µg/mL (≈ 124 µM)	79 µg/mL (≈ 362 µM)	58 µg/mL (≈ 266 µM)
COC1=CC(=O)C[C@@H](C)[C@]12Oc1c(Cl)c(OC)cc(OC)c1C2=O [GRISEOFULVIN]	–	–	–	–	–	–	–	–	2.6 µg/mL (≈ 7.37 µM)
CCCCC[C@H]1CCCCCCCCCC(=O)O[C@H]2[C@H](O)[C@@H](CO)O[C@@H](O[C@H]3[C@H](O1)O[C@H](C)[C@H](O)[C@@H]3O)[C@@H]2O[C@@H]1O[C@@H](C)[C@H](OC(=O)[C@@H](C)CC)[C@@H](O[C@@H]2O[C@@H](C)[C@H](O)[C@@H](O)[C@H]2O)[C@H]1OC(=O)[C@@H](C)CC [TRICOLORIN A]	–	–	–	–	–	–	11 µg/mL (≈ 10.8 µM)	68 µg/mL (≈ 66.5 µM)	–
